Read-outs that look alike come from different tables or passages of the source.
Key:
cleaved PARP = assay: Western blotting of cleaved PARP in Colo-205 cells; type: cell-based, human; conditions: 48 h
Method: FIGS. 3A and 3B illustrate the effects of Cdc7 inhibition by compound 13 in Colo-205 cells. a) Western blot analysis of extracts prepared from Colo-205 cells at 48 h after treatment with DMSO control (0 μM) or compound 13 at indicated concentrations. b) […] analysis of Colo-205 cells treated for 48 h with DMSO control (0 μM) and the indicated concentration of compound 13. DNA content was measured by FACS after propidium iodide staining.
Human colon adenocarcinoma cell line Colo-205 was obtained from American Type Culture Collection (ATCC, Manassas Va.). Cells were grown in RPMI1640 supplemented with 10% FBS and 1% penicillin/streptomycin at 37° C., 5% CO2 and 95% humidity. Antibodies against Phospho-Histone H2A.X (Ser139) (no. 2577), Cleaved PARP (Asp214) (no. 9541) and MCM2 (no. 3619) were obtained from Cell signaling Technology. […]
Cells were seeded in T75 flasks (cell density, 2.25×10^6 cells/13.5 mL) and then incubated at 37° C. overnight. […] After washing with cold D-PBS, cells were scraped and lysed using a lysis buffer [RIPA Buffer (×1) containing 1% Phosphatase inhibitor Cocktail 3, 1% Phosphatase inhibitor Cocktail, and 1 mM phenylmethylsulfonyl fluoride], and the obtained samples were analyzed by western blotting. […] Each band was detected by chemiluminescence using a CCD camera (ImageQuant LAS 500, GE healthcare Ltd.).

p70S6K = p70S6K (Homo sapiens, UniProt P23443); assay: Kinase selectivity IC50, p70S6K; type: biochemical
Method: (§1) To investigate the representative kinase selectivity of these compounds at physiological ATP levels, compound 13 was screened over a panel of 121 kinases in the presence of 1 mM ATP with preincubation method. […] IC50 values of hit kinases were determined to confirm the selectivity of compound 13.

GSK3β = GSK3β (Homo sapiens, UniProt P49841); assay: Kinase selectivity IC50, GSK3β; type: biochemical
Method: as §1

Cdc7 = Cdc7 (Homo sapiens, UniProt O00311); assay: Rapid dilution assay (dissociation rate from Cdc7); type: biochemical
Source text: FIG. 2 is a graph of the results obtained from the rapid dilution assay for Cdc7 inhibitors. Recovery of enzymatic activity was monitored by formation of the phosphorylated product. DMSO control (closed circle), compound 1 (open triangle), compound 13 (open square).
To better understand the observed time dependent inhibition of these compounds, compound 13 was subjected to the rapid dilution assay to study dissociation rate, and compared with compound 1. The inhibitor-enzyme mixture was rapidly diluted into the assay buffer containing the substrate and a high concentration of ATP, and then the phosphorylated product formation was monitored over 500 min of time course.

[1] = molecular target: T1, human Cdc7/human ASK complex protein (Homo sapiens, UniProt O00311); assay: Cdc7/ASK enzymatic assay; type: biochemical
T1 construct: purchased Carna Biosciences, Inc
Method: Measurement of Cdc7 kinase activity was carried out using MSA assay kit (QuickScout™ Screening Assist Kit, Carna Biosciences, Inc.). Assay buffer (20 mM HEPES, 0.01% Triton X-100™, 2 mM dithiothreitol, pH 7.5) was used to prepare a substrate mixture solution comprising 4 μM of kinase-reaction substrate (FITC-labeled MCM2 peptide), 40 mM MgCl2, and 4 times concentrations of final targeted ATP (5, 100, and 1,000 μM). The enzyme supplied in the kit (human Cdc7/human ASK complex protein) was diluted into the assay buffer to prepare a 7 nM solution (enzyme solution). The compound stock solution was prepared by diluting a 10 mM DMSO solution into the assay buffer (final 4% DMSO). The kinase reaction was performed by mixing of 5 μL of the compound solution, 5 μL of the substrate mixture solution, and 10 μL of the enzyme solution in a 384-well plate. For the pre-incubation assay, the compound solution and the enzyme solution were pre-mixed and incubated at ambient temperature for 30 min before adding into the substrate mixture solution to start enzymatic reaction. After the reaction at 25° C. for 5 hours, 60 μL of the termination buffer (supplied in the kit) was added to stop the reaction. The phosphorylation of substrate was measured using a LabChip EZ Reader II system (Caliper Life Sciences). The percent inhibition (%) by a tested compound was calculated according to the following formula:
Percent inhibition (%)=(1−(C−A)/(B−A))×100
A represents P/(P+S) for a blank well, B represents P/(P+S) for a solvent well, and C represents P/(P+S) for a compound-added well. S: the peak heights of the separated substrate, P: phosphorylated substrate.
The IC50 value of tested compound was calculated by regression analysis of the percent inhibition values versus the (logarithmic) concentration of the tested compound.

[2] = In vitro metabolic stability, human liver microsomes; type: in vitro ADME
Method: NADPH regeneration system (13 mM NADP, 33 mM Glucose-6-phospate, 33 mM MgCl2, and 4 U/mL of Glucose-6-phosphate dehydrogenase) and liver microsomes (1 mg/mL of HLM (BD Gentest, lot 18888) or MLM (BD Gentest, lot 31197)) in 0.1 M phosphate buffer (pH 7.4) were pre-incubated separately at 37° C. for 20 min before mixing with 1:4 ratio. 50 μL of the mixed solution was added to 50 μL of the test compound (2 μM) to initiate the reaction at 37° C. (final conc. 1 μM test compound, 0.4 mg/mL liver microsomes, and 1.3 mM NADPH). After 30 min, the reactions were stopped by adding 300 μL of cold acetonitrile. For 0 min samples, ice-cold acetonitrile (with system suitability standard) was treated before mixing the test compound and microsomes. The sample were vortexed well and then centrifuged at 3500 rpm at 15° C. for 20 min. 110 μL of supernatant was mixed with 110 μL of water and quantitated by LC-MS/MS workstation (Shimazu Corp.).

GSK3α = GSK3α (Homo sapiens, UniProt P49840); assay: Kinase selectivity IC50, GSK3α; type: biochemical
Method: as §1

HEL299 = assay: Anti-proliferation activity in HEL299; type: cell-based; conditions: HEL 299; HEL299, derived from a human embryo lung tissue
[3] = 1 mM ATP with preincubation, mean of duplicated assays

## CCOC(=O)C1=C(Nc2ccccc2Cl)OC(=Cc2c[nH]c3ncccc23)C1=O [Compound 13, Ethyl 5-((1H-pyrrolo[2,3-b]pyridin-3-yl)methylene)-2-((2-chlorophenyl)amino)-4-oxo-4,5-dihydrofuran-3-carboxylate]
Cleaved PARP
  cleaved PARP (apoptosis marker): Dose-dependent increases
p70S6K; [3]
  IC50: 399 nM
p70S6K; IC50 versus Cdc7
  Fold selectivity, p70S6K: 665 fold
GSK3β; [3]
  IC50: 51 nM
GSK3β; IC50 versus Cdc7
  Fold selectivity, GSK3β: 85 fold
Cdc7; monitored over 500 min
  phosphorylated product formation after rapid dilution: much reduced rate
Cdc7; rapid dilution, high concentration of ATP, read-out: off-rate from Cdc7 (koff) (converted)
  koff: 5.83e-05 s⁻¹
Cdc7; rapid dilution, high concentration of ATP, read-out: t1/2 of dissociation from Cdc7
  residence time: 197 min
[1]; 5 μM ATP, mean of duplicated assays, read-out: Cdc7 IC50
  IC50: 2.4 nM
[1]; 30 min pre-incubation with Cdc7, various ATP concentrations up to 1 mM
  pre-incubation effect on Cdc7 inhibition: inhibitory potencies were sustained even in the presence of 1 mM ATP
[1]; IC50 for each kinase versus Cdc7
  Fold selectivity, Cdc7: 1.0 fold
[1]; in the presence of 1 mM ATP, without pre-incubation, read-out: Cdc7 IC50
  IC50: 191 nM
[1]; kinase selectivity table, 1 mM ATP with preincubation, mean of duplicated assays, read-out: IC50 (nM), Cdc7
  IC50: 0.6 nM
[1]; various ATP concentrations, without pre-incubation
  ATP competition assay: effect of ATP concentration on inhibitory potency: ATP-dependent proportional decreases in inhibitory potencies
[2]; 30 min treatment of human liver microsomes
  HLM % (remaining % of parent compound): 67%
[2]; human
  metabolic stability in human liver microsome (in words): improved metabolic stabilities
GSK3α; [3]
  IC50: 37 nM
GSK3α; IC50 versus Cdc7
  Fold selectivity, GSK3α: 61 fold
HEL299
  IC50: 1200 nM

Source: patent US20200055848A1, “FURANONE DERIVATES AND METHODS OF USE THEREOF” (CARNA BIOSCIENCES, INC., priority 2016, published 2020)
